Key:
[1] = Inhibition of Tel-fused LYN expressed in mouse BAF3 cells
[2] = Inhibition of Tel-fused SRC expressed in mouse BAF3 cells
[3] = Inhibition of Tel-fused KDR expressed in mouse BAF3 cells
[4] = Inhibition of Tel-fused LCK expressed in mouse BAF3 cells

| SMILES | IC50 [1] [nM] | IC50 [2] [nM] | IC50 [3] [nM] | IC50 [4] [nM] |
| --- | --- | --- | --- | --- |
| Cc1ccc(NC(=O)c2cccc(C(F)(F)F)c2)cc1Nc1nc2ccccc2n1-c1cc(N[C@H]2CC[C@H](N)CC2)ncn1 [N-(3-(1-(6-(trans-4-aminocyclohexylamino)pyrimidin-4-yl)-1H-benzo[d]imidazol-2-ylamino)-4-methylphenyl)-3-(trifluoromethyl)benzamide] | 547 | 739 | 609 | 392 |
| Cc1ccc(NC(=O)c2cc(CN3CCN(C)CC3)n(C(C)(C)C)n2)cc1Nc1nc2ccccc2n1-c1cc(N)ncn1 [N-(3-(1-(6-aminopyrimidin-4-yl)-1H-benzo[d]imidazol-2-ylamino)-4-methylphenyl)-1-tert-butyl-5-((4-methylpiperazin-1-yl)methyl)-1H-pyrazole-3-carboxamide] | 88 | 249 | 63 | 18 |
| Cc1ccc(NC(=O)c2cc(Cl)cc(Cl)c2)cc1Nc1nc2ccccc2n1-c1cc(N)ncn1 [N-(3-(1-(6-aminopyrimidin-4-yl)-1H-benzo[d]imidazol-2-ylamino)-4-methylphenyl)-3,5-dichlorobenzamide] | 3610 | 9690 | 6360 | 1070 |
| Cc1ccc(NC(=O)c2cc(OC3CCN(C)CC3)cc(C(F)(F)F)c2)cc1Nc1nc2ccccc2n1-c1cc(N)ncn1 [N-(3-(1-(6-aminopyrimidin-4-yl)-1H-benzo[d]imidazol-2-ylamino)-4-methylphenyl)-3-(1-methylpiperidin-4-yloxy)-5-(trifluoromethyl)benzamide] | 5 | 39 | 66 | 7 |
| CCN1CCN(c2cc(C(=O)Nc3ccc(C)c(Nc4nc5ccccc5n4-c4cc(N)ncn4)c3)cc(C(F)(F)F)c2)CC1 [N-(3-(1-(6-aminopyrimidin-4-yl)-1H-benzo[d]imidazol-2-ylamino)-4-methylphenyl)-3-(4-ethylpiperazin-1-yl)-5-(trifluoromethyl)benzamide] | 9 | 57 | 5 | 4 |
| Cc1ccc(NC(=O)c2cc(N3CCN(C)CC3)cc(C(F)(F)F)c2)cc1Nc1nc2ccccc2n1-c1cc(N)ncn1 [N-(3-(1-(6-aminopyrimidin-4-yl)-1H-benzo[d]imidazol-2-ylamino)-4-methylphenyl)-3-(4-methylpiperazin-1-yl)-5-(trifluoromethyl)benzamide] | 6 | 47 | 43 | 3 |
| Cc1ccc(NC(=O)c2cccc(C(F)(F)F)c2)cc1Nc1nc2ccccc2n1-c1cc(N)ncn1 [N-(3-(1-(6-aminopyrimidin-4-yl)-1H-benzo[d]imidazol-2-ylamino)-4-methylphenyl)-3-(trifluoromethyl)benzamide] | 14 | 78 | 36 | 7 |
| CCN1CCN(Cc2ccc(C(=O)Nc3ccc(C)c(Nc4nc5ccccc5n4-c4cc(N)ncn4)c3)cc2Cl)CC1 [N-(3-(1-(6-aminopyrimidin-4-yl)-1H-benzo[d]imidazol-2-ylamino)-4-methylphenyl)-3-chloro-4-((4-ethylpiperazin-1-yl)methyl)benzamide] | 10 | 47 | 30 | 5 |
| Cc1ccc(NC(=O)c2cc(C3CC3)n[nH]2)cc1Nc1nc2ccccc2n1-c1cc(N)ncn1 [N-(3-(1-(6-aminopyrimidin-4-yl)-1H-benzo[d]imidazol-2-ylamino)-4-methylphenyl)-3-cyclopropyl-1H-pyrazole-5-carboxamide] | 96 | 56 | 48 | 50 |
| Cc1cccc(C(=O)Nc2ccc(C)c(Nc3nc4ccccc4n3-c3cc(N)ncn3)c2)c1 [N-(3-(1-(6-aminopyrimidin-4-yl)-1H-benzo[d]imidazol-2-ylamino)-4-methylphenyl)-3-methylbenzamide] | 82 | 490 | 280 | 32 |
| Cc1ccc(NC(=O)c2ccc(C(C)(C)C)s2)cc1Nc1nc2ccccc2n1-c1cc(N)ncn1 [N-(3-(1-(6-aminopyrimidin-4-yl)-1H-benzo[d]imidazol-2-ylamino)-4-methylphenyl)-5-tert-butylthiophene-2-carboxamide] | 5 | 4 | 4 | 4 |
| COc1cc(-n2c(Nc3cc(NC(=O)c4cccc(C(F)(F)F)c4)ccc3C)nc3ccccc32)ncn1 [N-(3-(1-(6-methoxypyrimidin-4-yl)-1H-benzo[d]imidazol-2-ylamino)-4-methylphenyl)-3-(trifluoromethyl)benzamide] | > 10000 | > 10000 | > 10000 | > 10000 |
| Cc1ccc(NC(=O)c2cccc(C(F)(F)F)c2)cc1Nc1nc2ccccc2n1-c1cc(NC2CCN(C)CC2)ncn1 [N-(4-methyl-3-(1-(6-(1-methylpiperidin-4-ylamino)pyrimidin-4-yl)-1H-benzo[d]imidazol-2-ylamino)phenyl)-3-(trifluoromethyl)benzamide] | 1420 | 1380 | 1710 | 881 |
| Cc1ccc(NC(=O)c2cccc(C(F)(F)F)c2)cc1Nc1nc2ccccc2n1-c1cc(NCCN2CCN(C)CC2)ncn1 [N-(4-methyl-3-(1-(6-(2-(4-methylpiperazin-1-yl)ethylamino)pyrimidin-4-yl)-1H-benzo[d]imidazol-2-ylamino)phenyl)-3-(trifluoromethyl)benzamide] | 204 | 918 | 605 | 56 |
| Cc1ccc(NC(=O)c2cccc(C(F)(F)F)c2)cc1Nc1nc2ccccc2n1-c1cc(NCCc2ccccn2)ncn1 [N-(4-methyl-3-(1-(6-(2-(pyridin-2-yl)ethylamino)pyrimidin-4-yl)-1H-benzo[d]imidazol-2-ylamino)phenyl)-3-(trifluoromethyl)benzamide] | 259 | 524 | 549 | 171 |
| Cc1ccc(NC(=O)c2cccc(C(F)(F)F)c2)cc1Nc1nc2ccccc2n1-c1cc(NCCCN2CCN(C)CC2)ncn1 [N-(4-methyl-3-(1-(6-(3-(4-methylpiperazin-1-yl)propylamino)pyrimidin-4-yl)-1H-benzo[d]imidazol-2-ylamino)phenyl)-3-(trifluoromethyl)benzamide] | 149 | 601 | 582 | 25 |
| Cc1ccc(NC(=O)c2cccc(C(F)(F)F)c2)cc1Nc1nc2ccccc2n1-c1cc(NCCCC2COCCN2)ncn1 (configuration not stated) [N-(4-methyl-3-(1-(6-(3-(morpholin-3-yl)propylamino)pyrimidin-4-yl)-1H-benzo[d]imidazol-2-ylamino)phenyl)-3-(trifluoromethyl)benzamide] | 67 | 600 | 318 | 40 |
| Cc1ccc(NC(=O)c2cccc(C(F)(F)F)c2)cc1Nc1nc2ccccc2n1-c1cc(N2CCOCC2)ncn1 [N-(4-methyl-3-(1-(6-morpholinopyrimidin-4-yl)-1H-benzo[d]imidazol-2-ylamino)phenyl)-3-(trifluoromethyl)benzamide] | > 10000 | > 10000 | > 10000 | > 10000 |

— BindingDB's records for doi:10.1016/j.bmcl.2009.09.123 (Genomics Institute of The Novartis Research Foundation, 2009)
